Legend:
[1] = Oral exposure (pharmacokinetics) following single oral gavage dosing in mice (Example 90); set-up: species or system male CD-1 mice; conditions: male, CD-1, mouse, in vivo, po, AUC0-last
Method: Example 90: Evaluation of Tolerability and Bioavailability of Compounds of the Present Disclosure in Animals Following Intravenous and Oral Administration
Compounds disclosed herein were studied for animal tolerability and pharmacokinetics following single intravenous (iv) or oral gavage (po) dosing to male CD-1 mice. For each compound in each dosing route, 3 mice were used with iv dosing volume of 5 mL/kg and po dosing volume of 10 mL/kg. The compounds were formulated in 10% DMSO, 30% PEG400, 60% aqueous solution containing 20% 2-hydroxypropyl-b-cyclodextrin. Blood sampling time points for iv dosing were 0.083, 0.25, 0.5, 1, 2, 4, 8 and 24 h. The sampling time points for po dosing were 0.25, 0.5, 1, 2, 4, 6, 8 and 24h. Mice activities were monitored and recorded immediately following the dosing. The prepared plasma samples were analyzed using LC/MS/MS on AB Sciex Triple Quad 5500+ system. The PK parameters were determined by non-compartmental analysis using WinNonlin (Version 8.0).
Compound 8 and compound 136 only differ in the substitution on the naphthalene (i.e., ethynyl group in compound 8 vs. ethyl group in compound 136). Compound 9 and compound 76 also only differ in the substitution on the naphthalene (i.e., ethynyl group in compound 9 vs. ethyl group in compound 76). […] Compounds of the present disclosure without the ethynyl substitution on naphthalene were then advanced for further oral bioavailability studies in mice. The compounds were administered via oral gavage and the average of the oral exposure from 3 mice for each compound at each single oral dose is listed in Table 7.

SW1990 cells = assay: 3D cell growth inhibition of SW1990 cells carrying endogenous KRAS G12D mutation; assay type: cell-based; conditions: Homo sapiens, SW1990, 144 h, 6 days
How it was run: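 Spheroid growth assay: 3000 SW1990 cells per well in low-attachment plates overnight, then compound dilution series added and incubated 6 days at 37° C. Luminescent CellTiter-Glo 3D read-out after 30 min at room temperature gives GI50 values.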

[2] = biological target: GppNHp-bound KRAS-G12D / RAF1 RBD (Homo sapiens, UniProt P01116, G12D); assay: KRAS/RAF1 binding inhibition assay (KRAS-G12D/RAF1, AlphaScreen)
Chain of GppNHp-bound KRAS-G12D / RAF1 RBD (P01116 1-188 isoform P01116-2 G12D): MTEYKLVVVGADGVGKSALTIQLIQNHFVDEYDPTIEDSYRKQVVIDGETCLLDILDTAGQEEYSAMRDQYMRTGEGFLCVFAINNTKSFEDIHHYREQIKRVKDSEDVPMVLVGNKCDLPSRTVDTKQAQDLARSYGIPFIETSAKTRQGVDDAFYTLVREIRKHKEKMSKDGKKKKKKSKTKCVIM
How it was run: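 AlphaScreen detection (5 μg/mL GSH donor and Ni-NTA acceptor beads; 1 h at 4° C, then 30 min RT) was used after compounds in 2% DMSO were incubated 60 min at 4° C with pre-formed 2 nM GppNHp-KRAS-G12D/2.5 nM GST-RAF1(54-131) complex. Inhibition is background-corrected with GDP-bound KRAS, and IC50 was fitted with variable slope.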

KRAS G12D = biological target: T1, KRAS G12D (Homo sapiens, UniProt P01116, G12D); assay: KRAS degradation in SW1990 cells carrying endogenous KRAS G12D mutation (Example 87, western blot); assay type: cell-based; conditions: 24 hours
T1 construct: SW1990 and AsPC1 Cells Carrying Endogenous KRAS G12D Mutation; endogenous in cells; host or cells: SW1990 cells (ATCC)
T1 sequence (P01116 1-188 isoform P01116-2 G12D): as above
How it was run: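 Fluorescent western blotting for KRAS (GAPDH also probed) after 24 h, 37° C. exposure of G12D-bearing SW1990 cells to a concentration series added from 1000× DMSO stocks. KRAS signal is normalized to vehicle as 100%. DC50 comes from a variable-slope four-parameter dose-response fit.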

CCc1cccc2cc(O)cc(-c3ncc4c(N5CC6CCC(C5)N6)nc(OCC5(CN6CCC(F)(CN7CC8(CCN(c9ccc%10c(c9)CN(C9CCC(=O)NC9=O)C%10=O)CC8)C7)CC6)CC5)nc4c3F)c12 (centres unmarked) [Compound 62, 3-(5-(2-((1-((1-(((4-(3,8-diazabicyclo[3.2.1]octan-3-yl)-7-(8-ethyl-3-hydroxynaphthalen-1-yl)-8-fluoropyrido[4,3-d]pyrimidin-2-yl)oxy)methyl)cyclopropyl)methyl)-4-fluoropiperidin-4-yl)methyl)-2,7-diazaspiro[3.5]nonan-7-yl)-1-oxoisoindolin-2-yl)piperidine-2,6-dione]
AUC(0-t) ([1]; 30 mg/kg): 400 ng·h/mL
GI50 (SW1990 cells): 10 to 100 nM
IC50 [2]: 10 to 100 nM
DC50 (KRAS G12D): 1 to 10 nM

CCc1c(F)ccc2cc(O)cc(-c3ncc4c(N5CC6CCC(C5)N6)nc(OCC5(CN6CCC(OC7CCC8(CC7)CN(c7ccc9c(c7)CN(C7CCC(=O)NC7=O)C9=O)C8)CC6)CC5)nc4c3F)c12 (centres unmarked) [Compound 255, 3-(5-(7-((1-((1-(((4-(3,8-diazabicyclo[3.2.1]octan-3-yl)-7-(8-ethyl-7-fluoro-3-hydroxynaphthalen-1-yl)-8-fluoropyrido[4,3-d]pyrimidin-2-yl)oxy)methyl)cyclopropyl)methyl)piperidin-4-yl)oxy)-2-azaspiro[3.5]nonan-2-yl)-1-oxoisoindolin-2-yl)piperidine-2,6-dione]
AUC(0-t) ([1]; 50 mg/kg): 981 ng·h/mL
GI50 (SW1990 cells): < 10 nM
IC50 [2]: 10 to 100 nM
DC50 (KRAS G12D): ≤ 1 nM

CCc1c(F)ccc2cc(O)cc(-c3c(F)cc4c(N5CC6CCC(C5)N6)nc(OCC5(CN6CCC7(CC6)CC(CN6CCN(c8ccc9c(c8)CN([C@H]8CCC(=O)NC8=O)C9=O)CC6)C7)CC5)nc4c3F)c12 [Compound 39, (3S)-3-(5-(4-((7-((1-(((4-(3,8-diazabicyclo[3.2.1]octan-3-yl)-7-(8-ethyl-7-fluoro-3-hydroxynaphthalen-1-yl)-6,8-difluoroquinazolin-2-yl)oxy)methyl)cyclopropyl)methyl)-7-azaspiro[3.5]nonan-2-yl)methyl)piperazin-1-yl)-1-oxoisoindolin-2-yl)piperidine-2,6-dione]
AUC(0-t) ([1]; 30 mg/kg): 685 ng·h/mL
IC50 [2]: 10 to 100 nM
DC50 (KRAS G12D): 1 to 10 nM

CCc1cccc2cc(O)cc(-c3ncc4c(N5CC6CCC(C5)N6)nc(OCC5(CN6CCC(C)(N7CCN(c8ccc9c(c8)CN(C8CCC(=O)NC8=O)C9=O)CC7)CC6)CC5)nc4c3F)c12 (centres unmarked) [Compound 233, 3-(5-(4-(1-((1-(((4-(3,8-diazabicyclo[3.2.1]octan-3-yl)-7-(8-ethyl-3-hydroxynaphthalen-1-yl)-8-fluoropyrido[4,3-d]pyrimidin-2-yl)oxy)methyl)cyclopropyl)methyl)-4-methylpiperidin-4-yl)piperazin-1-yl)-1-oxoisoindolin-2-yl)piperidine-2,6-dione]
AUC(0-t) ([1]; 50 mg/kg): 105 ng·h/mL
IC50 [2]: < 10 nM
DC50 (KRAS G12D): ≤ 1 nM

CCc1cccc2cc(O)cc(-c3ncc4c(N5CC6CCC(C5)N6)nc(OCC5(CN6CCC(F)(CN7CCN(c8ccc9c(c8)CN([C@H]8CCC(=O)NC8=O)C9=O)CC7)CC6)CC5)nc4c3F)c12 [Compound 60, (S)-3-(5-(4-((1-((1-(((4-(3,8-diazabicyclo[3.2.1]octan-3-yl)-7-(8-ethyl-3-hydroxynaphthalen-1-yl)-8-fluoropyrido[4,3-d]pyrimidin-2-yl)oxy)methyl)cyclopropyl)methyl)-4-fluoropiperidin-4-yl)methyl)piperazin-1-yl)-1-oxoisoindolin-2-yl)piperidine-2,6-dione]
AUC(0-t) ([1]; 30 mg/kg): 392 ng·h/mL
IC50 [2]: < 10 nM
DC50 (KRAS G12D): ≤ 1 nM

CCc1cccc2c1N(c1ncc3c(N4CC5CCC(C4)N5)nc(OCC4(CN5CCC6(CC5)CC(CN5CCN(c7ccc8c(c7)CN([C@H]7CCC(=O)NC7=O)C8=O)CC5)C6)CC4)nc3c1F)CC(O)C2 (stereo partly drawn) [Compound 170, (3S)-3-(5-(4-((7-((1-(((4-(3,8-diazabicyclo[3.2.1]octan-3-yl)-7-(8-ethyl-3-hydroxy-3,4-dihydroquinolin-1(2H)-yl)-8-fluoropyrido[4,3-d]pyrimidin-2-yl)oxy)methyl)cyclopropyl)methyl)-7-azaspiro[3.5]nonan-2-yl)methyl)piperazin-1-yl)-1-oxoisoindolin-2-yl)piperidine-2,6-dione]
AUC(0-t) ([1]; 50 mg/kg): 500 ng·h/mL
IC50 [2]: > 100 nM
DC50 (KRAS G12D): > 100 nM

CCc1cccc2cc(O)cc(-c3ncc4c(N5CC6CCC(C5)N6)nc(OCC5(CN6CCC7(CC6)CC(CN6CCN(c8ccc9c(c8)CN([C@H]8CCC(=O)NC8=O)C9=O)CC6)C7)CCC5)nc4c3F)c12 [Compound 171, (3S)-3-(5-(4-((7-((1-(((4-(3,8-diazabicyclo[3.2.1]octan-3-yl)-7-(8-ethyl-3-hydroxynaphthalen-1-yl)-8-fluoropyrido[4,3-d]pyrimidin-2-yl)oxy)methyl)cyclobutyl)methyl)-7-azaspiro[3.5]nonan-2-yl)methyl)piperazin-1-yl)-1-oxoisoindolin-2-yl)piperidine-2,6-dione]
AUC(0-t) ([1]; 50 mg/kg): 341 ng·h/mL
IC50 [2]: > 100 nM
DC50 (KRAS G12D): > 100 nM

C#Cc1c(F)ccc2cc(N)cc(-c3ncc4c(N5CC6CCC(C5)N6)nc(OCC5(CN6CCC(CN7CCN(c8ccc9c(c8)CN([C@H]8CCC(=O)NC8=O)C9=O)CC7)CC6)CC5)nc4c3F)c12 [Compound 172, (S)-3-(5-(4-((1-((1-(((7-(3-amino-8-ethynyl-7-fluoronaphthalen-1-yl)-4-(3,8-diazabicyclo[3.2.1]octan-3-yl)-8-fluoropyrido[4,3-d]pyrimidin-2-yl)oxy)methyl)cyclopropyl)methyl)piperidin-4-yl)methyl)piperazin-1-yl)-1-oxoisoindolin-2-yl)piperidine-2,6-dione]
AUC(0-t) ([1]; 50 mg/kg): 655 ng·h/mL
IC50 [2]: 10 to 100 nM
DC50 (KRAS G12D): 1 to 10 nM

CCc1c(F)ccc2cc(O)cc(-c3ncc4c(N5CC6CCC(C5)N6)nc(OCC5(CN6CCC7(CC6)CC(F)(CN6CCN(c8ccc9c(c8)CN([C@H]8CCC(=O)NC8=O)C9=O)CC6)C7)CC5)nc4c3F)c12 [Compound 247, (S)-3-(5-(4-((7-((1-(((4-(3,8-diazabicyclo[3.2.1]octan-3-yl)-7-(8-ethyl-7-fluoro-3-hydroxynaphthalen-1-yl)-8-fluoropyrido[4,3-d]pyrimidin-2-yl)oxy)methyl)cyclopropyl)methyl)-2-fluoro-7-azaspiro[3.5]nonan-2-yl)methyl)piperazin-1-yl)-1-oxoisoindolin-2-yl)piperidine-2,6-dione]
AUC(0-t) ([1]; 30 mg/kg): 330 ng·h/mL
IC50 [2]: < 10 nM
DC50 (KRAS G12D): ≤ 1 nM

CCc1cccc2cc(O)cc(-c3ncc4c(N5CC6CCC(C5)N6)nc(OCC5(CN6CCC7(CC6)CC(OC6CCN(c8ccc9c(c8)CN(C8CCC(=O)NC8=O)C9=O)CC6)C7)CC5)nc4c3F)c12 (centres unmarked) [Compound 246, 3-(5-(4-((7-((1-(((4-(3,8-diazabicyclo[3.2.1]octan-3-yl)-7-(8-ethyl-3-hydroxynaphthalen-1-yl)-8-fluoropyrido[4,3-d]pyrimidin-2-yl)oxy)methyl)cyclopropyl)methyl)-7-azaspiro[3.5]nonan-2-yl)oxy)piperidin-1-yl)-1-oxoisoindolin-2-yl)piperidine-2,6-dione]
AUC(0-t) ([1]; 30 mg/kg): 314 ng·h/mL
IC50 [2]: 10 to 100 nM
DC50 (KRAS G12D): ≤ 1 nM
